Read-outs that look alike come from different tables or passages of the source.
Legend:
echovirus 9 (ECHO-9) = experiment: Anti-echoviral cell culture assay (EC50), ECHO-9; type: cell-based; settings: Enterovirus B
[1] = system: Coxsackievirus type A-21 (CAV-21); experiment: Anticoxsackieviral cell culture assay (XTT, EC50), CAV-21; type: cell-based, coxsackievirus A-21 in H1-HeLa cells; settings: Coxsackievirus
Protocol: (§1) Anticoxsackieviral Cell Culture Assay:
(§2) Coxsackievirus types A-21 (CAV-21) and B3 (CVB3) were purchased from American Type Culture Collection (ATCC, Rockville, Md.). Virus stocks were propagated and antiviral assays were performed in H1-HeLa cells (ATCC). Cells were grown in minimal essential medium with 10% fetal bovine serum (Life Technologies, Gaithersburg, Md.). The ability of the compounds of this invention to protect cells against either CAV-21 or CVB3 infection was measured by the XTT dye reduction method. This method is described in Weislow et al., J. Natl. Cancer Inst. (1989), vol. 81, 577-586. H1-HeLa cells were infected with CAV-21 or CVB3 at a multiplicity of infection (m.o.i.) of 0.025 or 0.075, respectively, or mock-infected with medium only. H1-HeLa cells were plated at 4×10^4 cells per well in a 96-well plate and incubated with appropriate concentrations of the test compound. One day (CVB3) or two days (CAV-21) later, XTT/PMS was added to test plates and the amount of formazan produced was quantified spectrophotometrically at 450/650 nm. […] The therapeutic index (TI) was calculated by dividing the CC50 by the EC50.

coxsackievirus B5 (CVB5) = experiment: Anticoxsackieviral cell culture assay (EC50), CVB5; type: cell-based; settings: Enterovirus B
[2] = biological target: T1, Recombinant rhinovirus 3C protease, serotype 14 (Human rhinovirus 14, UniProt P03303); experiment: Inhibition of rhinovirus 3C protease (FRET assay, kobs/[I]), serotype 14; type: biochemical; settings: pH 7.6, read-out: kobs/[I] (3C protease inhibition activity)
T1 construct: Recombinant rhinovirus 3C proteases; made in house
T1 sequence (P03303 1538-1719): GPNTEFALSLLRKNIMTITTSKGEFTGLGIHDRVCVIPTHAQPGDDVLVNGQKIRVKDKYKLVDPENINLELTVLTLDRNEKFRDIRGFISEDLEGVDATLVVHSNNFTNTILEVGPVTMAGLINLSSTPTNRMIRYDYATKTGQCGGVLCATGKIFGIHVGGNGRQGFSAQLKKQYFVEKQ
Procedure, shortened: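 kobs/[I] values came from progress curves of reactions started by adding 50-100 nM protease to buffer (50 mM tris pH 7.6, 1 mM EDTA, 2% DMSO) containing compound and ~1 μM quenched DABCYL-EDANS substrate. Rising EDANS fluorescence reported cleavage.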

[3] = Cytotoxicity (CC50) in uninfected MRC-5 cells, XTT dye reduction; type: cell-based, human; settings: human, MRC-5 cells, uninfected (mock-infected)
Protocol: Echovirus type 11 (ECHO 11) was purchased from ATCC (Rockville, Md.). Virus stocks were propagated and antiviral assays were performed in MRC-5 cells (ATCC). Cells were grown in minimal essential medium with 10% fetal bovine serum (Life Technologies, Gaithersburg, Md.). The ability of the compounds of this invention to protect cells against ECHO 11 infection was measured by the XTT dye reduction method (Weislow et al., J. Natl. Cancer Inst. (1989), vol. 81, 577-586). MRC-5 cells were infected with ECHO 11 at an m.o.i. of 0.003 or 0.004, respectively, or mock-infected with medium only. Infected or uninfected cells were added at 1×10^4 cells per well and incubated with appropriate concentrations of compound. Four days later, XTT/PMS was added to test plates, and the amount of formazan produced was quantified spectrophotometrically at 450/650 nm. […] The therapeutic index (TI) was calculated by dividing the CC50 by the EC50. Activity of the compounds against enterovirus type 70 (EV 70) may be measured by the same assay as described above in this section. Enterovirus type 70 (EV 70) may be obtained from the American Type Culture Collection ATCC (Rockville, Md.).

coxsackievirus B2 (CVB2) = experiment: Anticoxsackieviral cell culture assay (EC50), CVB2; type: cell-based; settings: Enterovirus B
[4] = system: Coxsackievirus type B3 (CVB3); experiment: Anticoxsackieviral cell culture assay (XTT, EC50), CVB3; type: cell-based, coxsackievirus B3 in H1-HeLa cells
Protocol: as §1, §2

[5] = system: strains of human rhinovirus (HRV); experiment: Antirhinoviral H1-HeLa cell culture assay (XTT cell protection, EC50), other HRV strains; type: cell-based, human rhinovirus in H1-HeLa cells; settings: read-out: EC50
Procedure, shortened: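 Protection of H1-HeLa cells from rhinovirus was scored two days post-infection via XTT dye reduction read at 450/650 nm, alongside mock-infected cells for toxicity. CC50/EC50 gives the therapeutic index.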

[6] = Human rhinovirus sp., H1-HeLa, HRV-Hanks
[7] = Human rhinovirus sp., HRV3, H1-HeLa, HRV-3
[8] = Human rhinovirus sp., HRV9, H1-HeLa, HRV-9
[9] = Human rhinovirus sp., HRV10, H1-HeLa, HRV-10
[10] = Human rhinovirus sp., HRV11, H1-HeLa, HRV-11
[11] = Human rhinovirus sp., HRV13, H1-HeLa, HRV-13
[12] = Human rhinovirus sp., HRV16, H1-HeLa, HRV-16
[13] = Human rhinovirus sp., HRV19, H1-HeLa, HRV-19
[14] = Human rhinovirus sp., HRV25, H1-HeLa, HRV-25
[15] = Human rhinovirus sp., HRV39, H1-HeLa, HRV-39
[16] = Human rhinovirus sp., HRV78, H1-HeLa, HRV-78

Compound | EC50 (echovirus 9 (ECHO-9)) [nM] | EC50 [1] [nM] | EC50 (coxsackievirus B5 (CVB5)) [nM] | EC50 (coxsackievirus B2 (CVB2)) [nM] | EC50 [4] [nM] | EC50 ([5]; H1-HeLa, HRV-1A) [nM] | EC50 ([5]; H1-HeLa, HRV-2) [nM] | EC50 ([5]; H1-HeLa, HRV-23) [nM] | EC50 [5, 6] [nM] | EC50 [5, 7] [nM] | EC50 [5, 8] [nM] | EC50 [5, 9] [nM] | EC50 [5, 10] [nM] | EC50 [5, 11] [nM] | EC50 [5, 12] [nM] | EC50 [5, 13] [nM] | EC50 [5, 14] [nM] | EC50 [5, 15] [nM] | EC50 [5, 16] [nM] | EC50 ([1]; H1-HeLa) [nM] | also measured
CCOC(=O)/C=C/[C@H](C[C@@H]1CCNC1=O)NC(=O)[C@H](CC)n1cccc(NC(=O)c2cc(C)on2)c1=O [Compound 26, trans-(2′S,3″″S,4S)-4-(2′-{3″-[(5′″-Methylisoxazole-3′″-carbonyl)amino]-2″-oxo-2″H-pyridin-1″-yl}butyrylamino)-5-(2″″-oxopyrrolidin-3″″-yl)pent-2-enoic Acid Ethyl Ester] | 15 | 121 | 18 | 55 | 16 | 14 | 16 | 40 | 54 | 29 | 45 | 27 | 4 | 58 | 50 | 65 | 102 | 47 | 57 | – | kinact/KI ([2]; HRV-14): 170000 M⁻¹ s⁻¹; CC50 at 4 days ([3]; line of ECHO-11): > 10000 nM; EC50 ([5]; Human rhinovirus sp., HRV87, H1-HeLa, HRV-87): 21 nM
Cc1cc(C(=O)Nc2cccn([C@@H](Cc3ccc(F)c(F)c3)C(=O)N[C@H](/C=C/C(=O)OC(C)C)C[C@@H]3CCNC3=O)c2=O)no1 [Compound 48, trans-(2′S,3″″″S,4S)-4-[3′-(3″,4″-Difluorophenyl)-2′-(3′″-{[1″″-(5′″″-methylisoxazol-3′″″-yl)methanoyl]amino}-2″″-oxo-2″″H-pyridin-1″″-yl)propanoylamino]-5-(2″″″-oxopyrrolidin-3″″″-yl)pent-2-enoic Acid Isopropyl Ester] | 57 | 1120 | 178 | 162 | 187 | 132 | 48 | 10 | 3 | 33 | 109 | 85 | 3 | 44 | 36 | 9 | 100 | 44 | 12 | – | CC50 at 4 days ([3]; line of ECHO-9): > 10000 nM
CC[C@@H](C(=O)N[C@H](/C=C/C(=O)OCc1ccccc1)C[C@@H]1CCNC1=O)n1cccc(NC(=O)c2cc(C)on2)c1=O [Compound 62, trans-(2′S,3′″″S,4S)-4-[2′-(3″-{[1′″-(5″″-Methylisoxazol-3″″-yl)methanoyl]amino}-2′″oxo-2′″H-pyridin-1′″-yl)butanoylamino]-5-(2′″″-oxopyrrolidin-3′″″-yl)pent-2-enoic Acid Benzyl Ester] | – | – | – | – | – | 17 | 45 | 32 | 52 | 52 | 130 | 52 | 10 | 4 | 53 | 21 | 18 | 43 | 57 | 298 | kinact/KI ([2]; HRV-14 3C protease): 210000 M⁻¹ s⁻¹; EC50 ([4]; H1-HeLa): 15 nM
C#CC[C@@H](C(=O)N[C@H](/C=C/C(=O)OCc1ccccc1)C[C@@H]1CCNC1=O)n1cccc(NC(=O)c2cc(C)on2)c1=O [Compound 63, trans-(2′S,3′″″S,4S)-4-[2′-(3″-{[1′″-(5″″-Methylisoxazol-3″″-yl)methanoyl]amino}-2′″-oxo-2′″H-pyridin-1′″-yl)pent-4″-ynoylamino]-5-(2′″″-oxopyrrolidin-3′″″-yl)pent-2-enoic Acid Benzyl Ester] | – | – | – | – | – | 12 | 24 | 37 | 400 | 27 | 65 | 46 | 17 | 45 | 46 | 14 | 7 | 35 | 34 | 153 | kinact/KI ([2]; HRV-14 3C protease): 300000 M⁻¹ s⁻¹; EC50 ([4]; H1-HeLa): 14 nM
